# Reference: ChEMBL document CHEMBL5385931, “Microascones, Decahydrofluorene-Class Alkaloids from the Marine-Derived Fungus Microascus sp. SCSIO 41821” (J Nat Prod, 2024)
# Columns and labels:
# [1] = test system: Candida albicans; assay: Antifungal activity against Candida albicans assessed as fungal growth inhibition; type: functional
# [2] = target: T1, M-phase inducer phosphatase 2 (Homo sapiens, UniProt P30305); assay: Inhibition of human CDC25B
# T1 sequence (P30305 whole entry): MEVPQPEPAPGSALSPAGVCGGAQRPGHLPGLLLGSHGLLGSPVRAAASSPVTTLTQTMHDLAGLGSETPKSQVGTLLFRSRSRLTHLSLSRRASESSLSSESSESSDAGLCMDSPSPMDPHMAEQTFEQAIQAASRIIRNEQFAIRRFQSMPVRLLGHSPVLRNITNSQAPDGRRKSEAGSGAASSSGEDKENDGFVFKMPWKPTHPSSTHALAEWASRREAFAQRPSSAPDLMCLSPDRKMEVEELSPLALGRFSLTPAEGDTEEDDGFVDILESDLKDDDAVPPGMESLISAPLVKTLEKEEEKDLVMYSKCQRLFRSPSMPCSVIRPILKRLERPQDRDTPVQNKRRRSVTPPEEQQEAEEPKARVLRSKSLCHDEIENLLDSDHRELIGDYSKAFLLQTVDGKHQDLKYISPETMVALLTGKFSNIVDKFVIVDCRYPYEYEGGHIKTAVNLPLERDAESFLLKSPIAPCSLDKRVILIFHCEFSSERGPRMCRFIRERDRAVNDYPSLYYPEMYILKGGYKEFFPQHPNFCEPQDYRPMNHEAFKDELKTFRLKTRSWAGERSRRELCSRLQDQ
# [3] = test system: Streptococcus agalactiae; assay: Antibacterial activity against Streptococcus agalactiae ATCC 13813 assessed as bacterial growth inhibition by broth microdilution method; type: functional
# [4] = test system: Micrococcus luteus; assay: Antibacterial activity against Micrococcus luteus SC41991 assessed as bacterial growth inhibition by broth microdilution method; type: functional
# [5] = target: Receptor-type tyrosine-protein phosphatase F (Homo sapiens, UniProt P10586); assay: Inhibition of human LAR
# Chain of Receptor-type tyrosine-protein phosphatase F (P10586 whole entry): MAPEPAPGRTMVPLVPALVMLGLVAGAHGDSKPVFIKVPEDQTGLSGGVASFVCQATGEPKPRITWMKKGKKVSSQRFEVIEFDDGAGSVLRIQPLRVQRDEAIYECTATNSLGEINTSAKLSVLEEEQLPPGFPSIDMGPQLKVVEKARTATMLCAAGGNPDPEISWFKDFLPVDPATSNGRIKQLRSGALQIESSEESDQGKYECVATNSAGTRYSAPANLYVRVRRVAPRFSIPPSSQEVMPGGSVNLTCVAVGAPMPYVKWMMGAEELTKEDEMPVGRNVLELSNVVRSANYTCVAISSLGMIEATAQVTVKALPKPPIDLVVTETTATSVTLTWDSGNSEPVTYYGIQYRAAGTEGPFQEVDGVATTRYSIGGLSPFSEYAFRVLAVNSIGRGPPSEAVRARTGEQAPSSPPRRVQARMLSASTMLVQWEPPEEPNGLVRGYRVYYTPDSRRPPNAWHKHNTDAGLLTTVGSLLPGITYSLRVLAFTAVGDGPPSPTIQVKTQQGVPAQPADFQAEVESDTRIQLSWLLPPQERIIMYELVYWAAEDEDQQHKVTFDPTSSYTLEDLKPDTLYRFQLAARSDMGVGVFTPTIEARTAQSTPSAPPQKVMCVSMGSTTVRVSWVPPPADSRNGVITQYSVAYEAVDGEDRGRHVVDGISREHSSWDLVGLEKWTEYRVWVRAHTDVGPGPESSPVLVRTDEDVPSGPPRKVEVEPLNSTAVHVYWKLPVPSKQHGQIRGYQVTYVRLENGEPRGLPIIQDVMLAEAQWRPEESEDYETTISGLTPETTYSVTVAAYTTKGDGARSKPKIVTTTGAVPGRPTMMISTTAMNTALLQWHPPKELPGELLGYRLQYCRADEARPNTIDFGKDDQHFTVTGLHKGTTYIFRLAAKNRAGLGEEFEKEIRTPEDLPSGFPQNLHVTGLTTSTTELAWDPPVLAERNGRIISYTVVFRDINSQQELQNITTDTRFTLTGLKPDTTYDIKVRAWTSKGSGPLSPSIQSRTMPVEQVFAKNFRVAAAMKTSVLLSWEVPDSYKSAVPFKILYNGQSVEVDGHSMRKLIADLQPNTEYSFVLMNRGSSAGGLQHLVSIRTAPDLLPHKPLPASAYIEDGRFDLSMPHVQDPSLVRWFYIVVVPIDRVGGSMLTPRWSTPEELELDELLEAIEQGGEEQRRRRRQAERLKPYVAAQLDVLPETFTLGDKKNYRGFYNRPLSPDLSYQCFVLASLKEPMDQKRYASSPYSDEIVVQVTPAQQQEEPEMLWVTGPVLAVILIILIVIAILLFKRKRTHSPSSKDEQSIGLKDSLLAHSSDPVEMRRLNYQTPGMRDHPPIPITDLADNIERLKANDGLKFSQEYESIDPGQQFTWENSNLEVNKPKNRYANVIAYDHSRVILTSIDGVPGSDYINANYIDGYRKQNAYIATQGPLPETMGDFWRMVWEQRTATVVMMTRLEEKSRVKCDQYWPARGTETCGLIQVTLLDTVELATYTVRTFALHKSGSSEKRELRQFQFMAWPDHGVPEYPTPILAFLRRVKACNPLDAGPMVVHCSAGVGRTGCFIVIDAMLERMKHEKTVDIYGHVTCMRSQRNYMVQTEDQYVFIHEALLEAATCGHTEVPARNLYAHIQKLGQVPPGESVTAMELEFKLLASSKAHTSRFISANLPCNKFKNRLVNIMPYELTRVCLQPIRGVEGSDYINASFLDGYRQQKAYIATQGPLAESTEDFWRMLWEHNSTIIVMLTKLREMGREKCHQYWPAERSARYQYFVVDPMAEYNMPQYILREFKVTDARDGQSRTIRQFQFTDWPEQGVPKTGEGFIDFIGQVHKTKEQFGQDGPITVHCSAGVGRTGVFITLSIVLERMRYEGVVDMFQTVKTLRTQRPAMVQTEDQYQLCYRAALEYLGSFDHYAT
# [6] = test system: Streptococcus iniae; assay: Antibacterial activity against Streptococcus iniae SC41992 assessed as bacterial growth inhibition by broth microdilution method; type: functional
# [7] = test system: Paracidovorax citrulli; assay: Antibacterial activity against Acidovorax citrulli SC42000 assessed as bacterial growth inhibition by broth microdilution method; type: functional
# [8] = test system: Bacillus subtilis; assay: Antibacterial activity against Bacillus subtilis BS01 assessed as bacterial growth inhibition by broth microdilution method; type: functional
# [9] = test system: Escherichia coli; assay: Antibacterial activity against Escherichia coli ATCC 25922 assessed as bacterial growth inhibition by broth microdilution method; type: functional
# [10] = test system: Staphylococcus aureus; assay: Antibacterial activity against Staphylococcus aureus ATCC 6538 assessed as bacterial growth inhibition by broth microdilution method; type: functional
# [11] = target: T2, Tyrosine-protein phosphatase non-receptor type 1 (Homo sapiens, UniProt P18031); assay: Inhibition of human PTP1B
# T2 sequence (P18031 whole entry): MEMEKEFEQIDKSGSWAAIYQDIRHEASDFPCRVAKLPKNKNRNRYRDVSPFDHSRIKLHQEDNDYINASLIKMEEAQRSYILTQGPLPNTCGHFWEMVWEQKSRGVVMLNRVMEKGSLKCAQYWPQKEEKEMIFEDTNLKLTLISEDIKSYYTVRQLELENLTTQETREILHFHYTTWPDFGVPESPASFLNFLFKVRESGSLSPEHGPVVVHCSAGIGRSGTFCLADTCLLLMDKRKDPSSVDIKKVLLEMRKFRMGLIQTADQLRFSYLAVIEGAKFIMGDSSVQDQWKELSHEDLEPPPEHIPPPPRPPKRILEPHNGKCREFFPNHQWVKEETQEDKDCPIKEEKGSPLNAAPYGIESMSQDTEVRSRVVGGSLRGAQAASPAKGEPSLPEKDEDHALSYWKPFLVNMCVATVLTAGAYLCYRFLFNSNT
# [12] = test system: Pseudomonas aeruginosa; assay: Antibacterial activity against Pseudomonas aeruginosa ATCC 9027 assessed as bacterial growth inhibition by broth microdilution method; type: functional
# [13] = target: Dual specificity protein phosphatase 3 (Homo sapiens, UniProt P51452); assay: Inhibition of human VHR
# Chain of Dual specificity protein phosphatase 3 (P51452 whole entry): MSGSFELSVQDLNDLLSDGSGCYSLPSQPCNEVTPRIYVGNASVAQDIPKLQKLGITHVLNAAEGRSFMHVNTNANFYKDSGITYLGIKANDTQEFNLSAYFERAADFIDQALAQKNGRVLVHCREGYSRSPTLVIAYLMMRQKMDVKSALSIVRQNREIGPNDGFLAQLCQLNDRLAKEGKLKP
# [14] = test system: Dickeya chrysanthemi; assay: Antibacterial activity against Dickeya chrysanthemi SC41999 assessed as bacterial growth inhibition by broth microdilution method; type: functional
# [15] = test system: Staphylococcus aureus; assay: Antibacterial activity against methicillin-resistant Staphylococcus aureus SC41993 assessed as bacterial growth inhibition by broth microdilution method; type: functional
# [16] = test system: Bacillus amyloliquefaciens; assay: Antibacterial activity against Bacillus amyloliquefaciens GDMCC 60233 assessed as bacterial growth inhibition by broth microdilution method; type: functional
# [17] = test system: HepG2; assay: Cytotoxicity against human HepG2 cells assessed as cell growth inhibition by CCK8 assay
# [18] = test system: NCI-H1975; assay: Cytotoxicity against human NCI-H1975 cells assessed as cell growth inhibition by CCK8 assay
SMILES,MIC [1] [µg/mL],IC50 [2] [µM],MIC [3] [µg/mL],MIC [4] [µg/mL],IC50 [5] [µM],MIC [6] [µg/mL],MIC [7] [µg/mL],MIC [8] [µg/mL],MIC [9] [µg/mL],MIC [10] [µg/mL],IC50 [11] [µM],MIC [12] [µg/mL],IC50 [13] [µM],MIC [14] [µg/mL],MIC [15] [µg/mL],MIC [16] [µg/mL],IC50 [17] [µM],IC50 [18] [µM]
CC(=O)N1CCN(c2ccc(OCC3COC(Cn4ccnc4)(c4ccc(Cl)cc4Cl)O3)cc2)CC1 (stereo not given) [KETOCONAZOLE],1.6,,,,,,,,,,,,,,,,,
CC1=C[C@@]2(C)C(=C(C)[C@H]3[C@@H]4C[C@H](C)C[C@H](C)[C@H]4[C@H]4Oc5ccc(cc5)C[C@@H]5C(=O)NC(=O)[C@H]5C(=O)[C@H]2[C@@H]43)[C@H]1C,> 100,> 200,25,25,> 200,12.5,> 100,13,25,50,11,> 100,> 200,> 100,13,100,,
CC1=C[C@@]2(C)C(=C(C)[C@H]3[C@@H]4C[C@H](C)C[C@H](C)[C@H]4[C@H]4Oc5ccc(cc5)C[C@@]5(O)C=C(C(=O)N5)C(=O)[C@H]2[C@@H]43)[C@H]1C,25,,0.4,1.6,,0.4,> 100,0.2,0.2,0.8,,> 100,,> 100,0.4,0.4,,
CC1=C2[C@@H](C)[C@@]3(C)O[C@H]3[C@]2(C)[C@H]2C(=O)[C@]34O[C@H]3[C@](O)(Cc3ccc(cc3)O[C@@H]3[C@H]5[C@@H](C[C@H](C)C[C@@H]5C)[C@H]1[C@H]32)NC4=O,,> 200,100,,> 200,100,,100,100,13,42,,> 200,,> 100,100,67,33
C=C/C(C)=C\[C@]1(C)C=C(C)[C@H]2[C@@H]3C[C@H](C)C[C@H](C)[C@H]3[C@H]3Oc4ccc(cc4)C[C@@H]4C(=O)NC(=O)[C@H]4C(=O)[C@@H]1[C@@H]32,,,50,,,,,100,100,> 100,,,,,> 100,,73,35
CC1=C[C@@]2(C)[C@@H]3C(=O)[C@@]45C(=O)N[C@@](O)(Cc6ccc(cc6)O[C@@H]6[C@H]7[C@@H](C[C@H](C)C[C@@H]7C)[C@H]1[C@H]63)[C@H]4CC=C(C)[C@@H]25,,,100,,,100,,100,100,> 100,,,,,> 100,100,,
COC(=O)CC(=O)[C@@H]1[C@H]2[C@H](Oc3ccc(CC(N)=O)cc3)[C@H]3[C@@H](C[C@H](C)C[C@@H]3C)[C@@H]2C(C)=C2[C@@H](C)C(C)=C[C@@]21C,,,100,,,> 100,,100,> 100,> 100,,,,,> 100,100,,
CO[C@@H]1/C2=C(\O)[C@H]3[C@H]4[C@H](Oc5ccc(cc5)C[C@]1(O)NC2=O)[C@H]1[C@@H](C[C@H](C)C[C@@H]1C)[C@@H]4C(C)=C1[C@@H](C)C(C)=C[C@@]13C,13,,0.2,1.6,,0.4,> 100,0.2,0.1,0.4,,> 100,,> 100,0.2,0.2,,
